Like-named read-outs stand apart in the source and are kept apart here.
Legend:
[1] = parameters: species or system human; conditions: in vivo
[2] = in vivo
[3] = tested on: genotype 1 HCV; assay: PROVE 1 Phase 2b clinical trial: viral response (HCV RNA, Roche COBAS TaqMan assay); assay type: in vivo, human
Description: Twenty percent of those treated with telaprevir were either Hispanic (10%) or African American (10%). In the control arm, 8% of patients were Hispanic and 12% were African American. […] On average, patients were 49 years old (21-63 years range) with a mean weight of 82.1 kg (46-136 kg range).
The Roche COBAS TaqMan® assay was used to measure HCV RNA (LOD 10 IU/mL). For viral kinetic modeling, values reported as <10 IU/mL were replaced with 5 IU/mL.
Severity of fibrosis was defined by histologic assessment from each center's local pathologist.
The Roche COBAS TaqMan® assay was used to measure HCV RNA (limit of detection 10 IU/mL). For viral kinetic modeling, values reported as <10 IU/mL were replaced with 5 IU/mL.

[4] = tested on: HCV genotype 1; assay: Phase 1b trial (Study VX04-950-101); conditions: subjects infected with HCV genotype 1
[5] = tested on: VX-950-resistant variants of HCV; assay: IC50 shift of VX-950-resistant variants
[6] = tested on: replicon; assay: Predicted human liver exposure relative to replicon assay IC50/IC90; conditions: dose range studied

For `CCC[C@H](NC(=O)[C@@H]1[C@H]2CCC[C@H]2CN1C(=O)[C@@H](NC(=O)[C@@H](NC(=O)c1cnccn1)C1CCCCC1)C(C)(C)C)C(=O)C(=O)NC1CC1` [VX-950], the “pharmacokinetics among the different racial/ethnic groups” value [1] was “No differences”, the oral bioavailability [2] was “orally bioavailable” and the “% with SVR” value [3] was 62%. For the same compound, the “% with SVR” value ([3]; AA (African American)) was 44%, the “% with SVR” value ([3]; L (Latino)) was 65% and the antiviral activity [4] was “substantial antiviral activity”. For the same compound, the “fold increase in IC50” value [5] was 7-20 fold and the “predicted average liver concentration, fold of the replicon assay IC90” value [6] was “up to 57 fold”.

— US20120039850A1, “HCV Combination Therapies Comprising Pegylated Interferon, Ribavirin and Telaprevir” (Janssen Pharmaceutica NV, priority 2009, published 2012)
